Data taken from US20050101595A1, “N-containing cycloalkyl-substituted amino-thiazole derivatives and pharmaceutical compositions for inhibiting cell proliferation and methods for their use” (PFIZER INC., priority 2003, published 2005).
Like-named read-outs stand apart in the source and are kept apart here.

Tests used:
CDK2/Cyclin A = CDK2/Cyclin A (Homo sapiens, UniProt P24941); experiment: Inhibition of CDK2/Cyclin A Retinoblastoma Kinase Activity; type: biochemical; settings: for Ki: apparent Ki, CDK2/proteolyzed cyclin A, Rb fragment substrate, 25 μM ATP
Method in brief: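 CDK2 (10 or 19 nM), insect-cell expressed, gel-filtration purified with truncated cyclin A; Rb fragment substrate; 25 μM ATP; 10 mM HEPES pH 7.4, 10 mM MgCl2; 30° C, 60 or 75 min; EDTA stop; phosphocellulose/nitrocellulose capture, phosphorimager. % inhibition vs DMSO control, no-enzyme background subtracted.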

HCT-116 cell line = experiment: Inhibition of cell growth, tetrazolium salt (MTT) assay; type: cell-based; settings: for HCT-116 % Inhibition at 0.25 μM: 0.25 μM compound; for IC50: Homo sapiens, HCT-116, 120 h, MTT, three to five days, read-out: HCT-116 IC50
Method in brief: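 Growth inhibition by MTT reduction at 540 nm (0.2 mg/mL, 4 h at 37° C, formazan dissolved in DMSO), normalized to cells given only 0.5% v/v DMSO. HCT-116 cultures in McCoy's 5A were dosed 4 h post-plating and kept three to five days at 37° C, 5% CO2.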

[1] = biological target: human CDK4 and genetically truncated (1-264) cyclin D3 (Homo sapiens, UniProt P11802); experiment: Inhibition of CDK4/Cyclin D Retinoblastoma Kinase Activity; type: biochemical; settings: for Ki: apparent Ki, CDK4/truncated cyclin D3, Rb fragment substrate, 25 μM ATP
Procedure: Cyclin-dependent kinase activity was measured by quantifying the enzyme-catalyzed, time-dependent incorporation of radioactive phosphate from [^32P]ATP or [^33P]ATP into a protein substrate. Unless noted otherwise, assays were performed in 96-well plates in a total volume of 50 μL, in the presence of 10 mM HEPES (N-[2-hydroxyethyl]piperazine-N′-[2-ethanesulfonic acid]) (pH 7.4), 10 mM MgCl2, 25 μM adenosine triphosphate (ATP), 1 mg/mL ovalbumin, 5 μg/mL leupeptin, 1 mM dithiothreitol, 10 mM β-glycerophosphate, 0.1 mM sodium vanadate, 1 mM sodium fluoride, 2.5 mM ethylene glycol-bis(β-aminoethyl ether)-N,N,N′N′-tetraacetic acid (EGTA), 2% (v/v) dimethylsulfoxide, and 0.03-0.4 μCi [^32/33P]ATP per reaction. Reactions were initiated with enzyme, incubated at 30° C., and terminated after 20 minutes by the addition of ethylenediaminetetraacetic acid (EDTA) to 250 mM. The phosphorylated substrate was then captured on a nitrocellulose or phosphocellulose membrane using a 96-well filtration manifold, and unincorporated radioactivity was removed by repeated washing with 0.85% phosphoric acid. Radioactivity was quantified by exposing the dried membranes to a phosphorimager.
Inhibition was measured relative to control wells that contained all reaction components including 2% (v/v) DMSO but no compound, after subtraction of background radioactivity measured in the absence of enzyme. Apparent Ki values of discrete compounds were measured by assaying enzyme activity in the presence of different inhibitor compound concentrations and subtracting the background radioactivity measured in the absence of enzyme. The kinetic parameters (kcat, Km for ATP) were measured for each enzyme under the usual assay conditions by determining the dependence of initial rates on ATP concentration. Inhibition data were fit to an equation for competitive inhibition using Kaleidagraph (Synergy Software), or were fit to an equation for competitive tight-binding inhibition using the software KineTic (BioKin, Ltd.).
Inhibition of CDK4/Cyclin D Retinoblastoma Kinase Activity:
A complex of human CDK4 and genetically truncated (1-264) cyclin D3 was purified using traditional biochemical chromatographic techniques from insect cells that had been co-infected with the corresponding baculovirus expression vectors (see e.g., Meijer and Kim, “Chemical Inhibitors of Cyclin-Dependent Kinases,” Methods in Enzymol,. vol. 283 (1997), pp. 113-128.). The enzyme complex (5 nM) was assayed with 0.3-0.5 μg of purified recombinant retinoblastoma protein fragment (Rb) as a substrate. The engineered Rb fragment (residues 386-928 of the native retinoblastoma protein; 62.3 kDa) contains the majority of the phosphorylation sites found in the native 106-kDa protein, as well as a tag of six histidine residues for ease of purification. Phosphorylated Rb substrate was captured by microfiltration on a nitrocellulose membrane and quantified using a phosphorimager as described above. For measurement of tight-binding inhibitors, the assay duration was extended to 60 minutes, during which the time-dependence of product formation was linear and initial rate conditions were met.

[2] = 0.1 μM compound, HCT-116, Table 3

Sequence of human CDK4 and genetically truncated (1-264) cyclin D3 (P11802 whole entry, the tested form may be a part): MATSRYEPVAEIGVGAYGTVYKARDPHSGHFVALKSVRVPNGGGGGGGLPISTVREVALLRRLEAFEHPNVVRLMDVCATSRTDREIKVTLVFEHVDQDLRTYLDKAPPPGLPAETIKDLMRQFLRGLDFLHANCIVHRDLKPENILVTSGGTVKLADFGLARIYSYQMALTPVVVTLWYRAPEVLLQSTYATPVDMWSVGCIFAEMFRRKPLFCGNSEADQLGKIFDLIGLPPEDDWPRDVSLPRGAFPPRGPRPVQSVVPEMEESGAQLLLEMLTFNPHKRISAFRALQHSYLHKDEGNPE
Sequence of human CDK4 and genetically truncated (1-264) cyclin D3 (P30281 1-264 partner): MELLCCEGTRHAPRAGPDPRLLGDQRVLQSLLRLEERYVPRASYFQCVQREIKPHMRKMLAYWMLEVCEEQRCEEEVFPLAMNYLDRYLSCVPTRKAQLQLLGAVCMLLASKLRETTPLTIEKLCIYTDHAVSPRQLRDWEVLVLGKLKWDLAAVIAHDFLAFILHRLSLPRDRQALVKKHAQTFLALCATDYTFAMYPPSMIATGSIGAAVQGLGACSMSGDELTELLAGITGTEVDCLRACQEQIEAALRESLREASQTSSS

| SMILES | Ki (CDK2/Cyclin A) [µM] | IC50 (HCT-116 cell line; first HCT-116 column (c4)) [µM] | IC50 (HCT-116 cell line; second HCT-116 column (c5)) [µM] | Ki [1] [µM] | CDK2 % Inhibition at 0.03 μM (CDK2/Cyclin A; 0.03 μM compound, Table 3) [%] | HCT-116 % Inhibition at 0.1 μM (HCT-116 cell line; [2]) [%] | HCT-116 % Inhibition at 0.25 μM (HCT-116 cell line; HCT-116, Table 3) [%] | CDK4 % Inhibition at 0.03 μM ([1]; 0.03 μM compound, Table 3) [%] | other results |
| --- | --- | --- | --- | --- | --- | --- | --- | --- | --- |
| Cc1ccc(C(=O)N2CCC(Nc3nc(N)c(C(=O)c4c(F)cccc4F)s3)CC2)cc1 [Example Q35] | – | – | – | – | – | – | – | – | CDK2 % Inhibition at 0.03 μM (CDK2/Cyclin A; 0.03 μM compound, Table 4): 35%; HCT-116 % Inhibition at 0.1 μM (HCT-116 cell line; 0.1 μM compound, HCT-116, Table 4): 3%; HCT-116 % Inhibition at 0.25 μM (HCT-116 cell line; HCT-116, Table 4): 21%; CDK4 % Inhibition at 0.03 μM ([1]; 0.03 μM compound, Table 4): 64% |
| CN(C)CC#Cc1ccc(S(=O)(=O)N2CCC(Nc3nc(N)c(C(=O)c4c(F)cccc4F)s3)CC2)cn1 [Example I11, 1-(4-Amino-2-{1-[6-(3-dimethylamino-prop-1-ynyl)-pyridine-3-sulfonyl]-piperidin-4-ylamino}-thiazol-5-yl)-1-(2,6-difluoro-phenyl)-methanone] | < 0.0005 | 0.016 | 0.025 | 0.0005 | – | – | – | – | – |
| N#Cc1c(Cl)cccc1Oc1ccc(S(=O)(=O)N2CCC(Nc3nc(N)c(C(=O)c4c(F)cccc4F)s3)CC2)cc1 [Example P52] | – | – | – | – | 49 | 16 | 22 | 47 | – |
| Nc1nc(NC2CCN(S(=O)(=O)c3ccc([N+](=O)[O-])cc3)CC2)sc1C(=O)c1c(F)cccc1F [Example P19] | – | – | – | – | 63 | 19 | 30 | 73 | – |
| Nc1nc(NC2CCN(S(=O)(=O)c3ccc(OCCO)nc3)CC2)sc1C(=O)c1c(F)cccc1F [Example H4, 1-(4-Amino-2-{1-[6-(2-hydroxy-ethoxy)-pyridine-3-sulfonyl]-piperidin-4-ylamino}-thiazol-5-yl)-1-(2,6-difluoro-phenyl)-methanone] | 0.0007 | 0.1 | 0.5 | 0.0025 | – | – | – | – | – |
| Nc1nc(NC2CCN(S(=O)(=O)c3ccc(Cl)c([N+](=O)[O-])c3)CC2)sc1C(=O)c1c(F)cccc1F [Example P15] | – | – | – | – | 50 | 30 | 34 | 65 | – |
| Nc1nc(NC2CCN(S(=O)(=O)c3cc(OCC(F)(F)F)ccc3OCC(F)(F)F)CC2)sc1C(=O)c1c(F)cccc1F [Example P54] | – | – | – | – | 17 | 22 | 23 | 34 | – |
| CN1CCC(Nc2nc(N)c(C(=O)c3c(F)cccc3F)s2)CC1 [Example A4, 1-[4-Amino-2-(1-methyl-piperidin-4-ylamino)-thiazol-5-yl]-1-(2,6-difluoro-phenyl)-methanone] | 12 | 1.7 | 3.8 | 0.93 | – | – | – | – | – |
| CC(C)OC(=O)N1CCC(Nc2nc(N)c(C(=O)c3c(F)cccc3F)s2)CC1 [Example R84] | – | – | – | – | – | – | – | – | CDK2 % Inhibition at 0.03 μM (CDK2/Cyclin A; at 0.03 μM): 4%; HCT-116 % Inhibition at 0.1 μM (HCT-116 cell line; HCT-116 cells, at 0.1 μM): 0%; HCT-116 5 Inhibition at 0.25 μM (HCT-116 cell line; HCT-116 cells, at 0.25 μM): 41; CDK4 % Inhibition at 0.03 μM ([1]; at 0.03 μM): 21% |
| CN(C)CCSCCCS(=O)(=O)N1CCC(Nc2nc(N)c(C(=O)c3c(F)cccc3F)s2)CC1 [Example K24, 1-(4-Amino-2-{1-[3-(2-dimethylamino-ethylsulfanyl)-propane-1-sulfonyl]-piperidin-4-ylamino}-thiazol-5-yl)-1-(2,6-difluoro-phenyl)-methanone.] | 0.0059 | > 0.05 | > 0.05 | 0.002 | – | – | – | – | – |
